Results: the supplement of paper PMC10307832

Assays:
Experiment in all cases: relative viability (nuclei count vs DMSO), 5 days (fraction); higher = more cells survive
[1] = tested on: LCLC-97TM1
In short: (§1)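 Relative viability is defined as nuclei in treated wells over nuclei in vehicle wells. Duplicate plates were run and medians reported. Lung cancer cell lines in 1536-well plates were dosed by pin tool one day after seeding, with one drug or with a fixed anchor-drug dose plus five library-drug doses (not always all listed) in √10 steps, and nuclei were counted after 5 days.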

[2] = tested on: 201T
In short: as §1

[3] = tested on: NCI-H1666
In short: as §1

[4] = tested on: H3255
In short: as §1

[5] = tested on: LOU-NH91
In short: as §1

[6] = tested on: NCI-H650
In short: as §1

[7] = tested on: NCI-H2087
In short: as §1

[8] = tested on: NCI-H2085
In short: as §1

[9] = tested on: NCI-H1437
In short: as §1

[10] = tested on: BEN
In short: as §1

[11] = tested on: EPLC-272H
In short: as §1

[12] = tested on: EKVX
In short: as §1

[13] = tested on: PC-3 [JPC-3]
In short: as §1

[14] = tested on: NCI-H647
In short: as §1

[15] = tested on: NCI-H1975
In short: as §1

[16] = tested on: LU99A
In short: as §1

[17] = tested on: COR-L 105
In short: as §1

[18] = tested on: HCC-44
In short: as §1

[19] = tested on: HCC-827
In short: as §1

[20] = tested on: SW 1573
In short: as §1

**Q.** Which relative viability ([1]; first compound 0.005 µM) does the source give for `COc1cc2nccc(Oc3ccc(NC(=O)Nc4cc(C)on4)c(Cl)c3)c2cc1OC` [Tivozanib] + CC(C)C[C@H](NC(=O)[C@H](Cc1ccccc1)NC(=O)c1cnccn1)B(O)O [Bortezomib] (partner 0.002 µM) here?
**A.** 0.533

**Q.** And the relative viability ([1]; first compound 0.01581 µM)?
**A.** 0.584

**Q.** And the relative viability ([1]; first compound 0.05 µM)?
**A.** 0.913

**Q.** And the relative viability ([1]; first compound 0.1581 µM)?
**A.** 0.603

**Q.** And the relative viability ([1]; first compound 0.5 µM)?
**A.** 1

**Q.** And the relative viability ([2]; first compound 0.005 µM)?
**A.** 1.11

**Q.** And the relative viability ([2]; first compound 0.01581 µM)?
**A.** 1.08

**Q.** And the relative viability ([2]; first compound 0.05 µM)?
**A.** 1.06

**Q.** And the relative viability ([2]; first compound 0.1581 µM)?
**A.** 1.07

**Q.** And the relative viability ([2]; first compound 0.5 µM)?
**A.** 1.11

**Q.** And the relative viability ([3]; first compound 0.005 µM)?
**A.** 0.746

**Q.** And the relative viability ([3]; first compound 0.01581 µM)?
**A.** 0.792

**Q.** What about the relative viability ([3]; first compound 0.05 µM) of the same compound?
**A.** 0.835

**Q.** And the relative viability ([3]; first compound 0.1581 µM)?
**A.** 0.74

**Q.** And the relative viability ([3]; first compound 0.5 µM)?
**A.** 0.875

**Q.** What about the relative viability ([4]; first compound 0.005 µM) of the same compound?
**A.** 0.739

**Q.** And the relative viability ([4]; first compound 0.01581 µM)?
**A.** 0.823

**Q.** And the relative viability ([4]; first compound 0.05 µM)?
**A.** 0.795

**Q.** What about the relative viability ([4]; first compound 0.1581 µM) of the same compound?
**A.** 0.582

**Q.** And the relative viability ([4]; first compound 0.5 µM)?
**A.** 0.697

**Q.** And the relative viability ([5]; first compound 0.005 µM)?
**A.** 0.5

**Q.** And the relative viability ([5]; first compound 0.01581 µM)?
**A.** 0.489

**Q.** And the relative viability ([5]; first compound 0.05 µM)?
**A.** 0.722

**Q.** What about the relative viability ([5]; first compound 0.1581 µM) of the same compound?
**A.** 0.561

**Q.** What about the relative viability ([5]; first compound 0.5 µM) of the same compound?
**A.** 0.499

**Q.** What about the relative viability ([6]; first compound 0.005 µM) of the same compound?
**A.** 0.447

**Q.** What about the relative viability ([6]; first compound 0.01581 µM) of the same compound?
**A.** 0.956

**Q.** And the relative viability ([6]; first compound 0.05 µM)?
**A.** 0.833

**Q.** And the relative viability ([6]; first compound 0.1581 µM)?
**A.** 0.579

**Q.** What about the relative viability ([6]; first compound 0.5 µM) of the same compound?
**A.** 0.497

**Q.** And the relative viability ([7]; first compound 0.005 µM)?
**A.** 0.644

**Q.** And the relative viability ([7]; first compound 0.01581 µM)?
**A.** 0.919

**Q.** What about the relative viability ([7]; first compound 0.05 µM) of the same compound?
**A.** 0.842

**Q.** And the relative viability ([7]; first compound 0.1581 µM)?
**A.** 0.77

**Q.** And the relative viability ([7]; first compound 0.5 µM)?
**A.** 0.739

**Q.** What about the relative viability ([8]; first compound 0.005 µM) of the same compound?
**A.** 1.02

**Q.** What about the relative viability ([8]; first compound 0.01581 µM) of the same compound?
**A.** 1.1

**Q.** And the relative viability ([8]; first compound 0.05 µM)?
**A.** 1.07

**Q.** What about the relative viability ([8]; first compound 0.1581 µM) of the same compound?
**A.** 1.04

**Q.** And the relative viability ([8]; first compound 0.5 µM)?
**A.** 0.846

**Q.** What about the relative viability ([9]; first compound 0.005 µM) of the same compound?
**A.** 0.487

**Q.** And the relative viability ([9]; first compound 0.01581 µM)?
**A.** 0.558

**Q.** What about the relative viability ([9]; first compound 0.05 µM) of the same compound?
**A.** 0.523

**Q.** And the relative viability ([9]; first compound 0.1581 µM)?
**A.** 0.508

**Q.** What about the relative viability ([9]; first compound 0.5 µM) of the same compound?
**A.** 0.399

**Q.** What about the relative viability ([10]; first compound 0.005 µM) of the same compound?
**A.** 0.703

**Q.** What about the relative viability ([10]; first compound 0.01581 µM) of the same compound?
**A.** 0.847

**Q.** And the relative viability ([10]; first compound 0.05 µM)?
**A.** 0.873

**Q.** What about the relative viability ([10]; first compound 0.5 µM) of the same compound?
**A.** 0.86

**Q.** What about the relative viability ([11]; first compound 0.005 µM) of the same compound?
**A.** 0.967

**Q.** And the relative viability ([11]; first compound 0.01581 µM)?
**A.** 0.856

**Q.** What about the relative viability ([11]; first compound 0.05 µM) of the same compound?
**A.** 0.949

**Q.** And the relative viability ([11]; first compound 0.1581 µM)?
**A.** 0.727

**Q.** What about the relative viability ([11]; first compound 0.5 µM) of the same compound?
**A.** 0.676

**Q.** What about the relative viability ([12]; first compound 0.005 µM) of the same compound?
**A.** 0.95

**Q.** And the relative viability ([12]; first compound 0.01581 µM)?
**A.** 0.924

**Q.** What about the relative viability ([12]; first compound 0.05 µM) of the same compound?
**A.** 1.11

**Q.** And the relative viability ([12]; first compound 0.1581 µM)?
**A.** 0.987

**Q.** And the relative viability ([12]; first compound 0.5 µM)?
**A.** 1.02

**Q.** And the relative viability ([13]; first compound 0.005 µM)?
**A.** 0.82

**Q.** What about the relative viability ([13]; first compound 0.01581 µM) of the same compound?
**A.** 0.855

**Q.** What about the relative viability ([13]; first compound 0.05 µM) of the same compound?
**A.** 0.847

**Q.** And the relative viability ([13]; first compound 0.1581 µM)?
**A.** 0.835

**Q.** And the relative viability ([13]; first compound 0.5 µM)?
**A.** 0.794

**Q.** And the relative viability ([14]; first compound 0.005 µM)?
**A.** 0.953

**Q.** What about the relative viability ([14]; first compound 0.01581 µM) of the same compound?
**A.** 0.886

**Q.** And the relative viability ([14]; first compound 0.05 µM)?
**A.** 1.05

**Q.** What about the relative viability ([14]; first compound 0.1581 µM) of the same compound?
**A.** 0.941

**Q.** What about the relative viability ([14]; first compound 0.5 µM) of the same compound?
**A.** 0.957

**Q.** And the relative viability ([15]; first compound 0.005 µM)?
**A.** 0.376

**Q.** What about the relative viability ([15]; first compound 0.01581 µM) of the same compound?
**A.** 0.418

**Q.** And the relative viability ([15]; first compound 0.05 µM)?
**A.** 0.361

**Q.** And the relative viability ([15]; first compound 0.1581 µM)?
**A.** 0.363

**Q.** What about the relative viability ([15]; first compound 0.5 µM) of the same compound?
**A.** 0.257

**Q.** What about the relative viability ([16]; first compound 0.005 µM) of the same compound?
**A.** 1.15

**Q.** And the relative viability ([16]; first compound 0.01581 µM)?
**A.** 1.07

**Q.** And the relative viability ([16]; first compound 0.05 µM)?
**A.** 1.29

**Q.** What about the relative viability ([16]; first compound 0.5 µM) of the same compound?
**A.** 1.06

**Q.** And the relative viability ([17]; first compound 0.01581 µM)?
**A.** 0.751

**Q.** What about the relative viability ([17]; first compound 0.05 µM) of the same compound?
**A.** 0.759

**Q.** What about the relative viability ([17]; first compound 0.1581 µM) of the same compound?
**A.** 0.702

**Q.** And the relative viability ([17]; first compound 0.5 µM)?
**A.** 0.681

**Q.** And the relative viability ([18]; first compound 0.005 µM)?
**A.** 0.895

**Q.** What about the relative viability ([18]; first compound 0.01581 µM) of the same compound?
**A.** 0.809

**Q.** What about the relative viability ([18]; first compound 0.05 µM) of the same compound?
**A.** 0.92

**Q.** And the relative viability ([18]; first compound 0.1581 µM)?
**A.** 0.864

**Q.** What about the relative viability ([18]; first compound 0.5 µM) of the same compound?
**A.** 0.833

**Q.** And the relative viability ([19]; first compound 0.005 µM)?
**A.** 0.981

**Q.** What about the relative viability ([19]; first compound 0.01581 µM) of the same compound?
**A.** 1.01

**Q.** And the relative viability ([19]; first compound 0.05 µM)?
**A.** 1.13

**Q.** And the relative viability ([19]; first compound 0.1581 µM)?
**A.** 1.08

**Q.** And the relative viability ([19]; first compound 0.5 µM)?
**A.** 1.03

**Q.** What about the relative viability ([20]; first compound 0.005 µM) of the same compound?
**A.** 1.02

**Q.** And the relative viability ([20]; first compound 0.01581 µM)?
**A.** 1.01

**Q.** And the relative viability ([20]; first compound 0.05 µM)?
**A.** 0.936

**Q.** And the relative viability ([20]; first compound 0.1581 µM)?
**A.** 0.772

**Q.** And the relative viability ([20]; first compound 0.5 µM)?
**A.** 0.831
